This passage reports MIC results from US5209930A, “Preparation and use of N-iodopropargyl oxycarbonyl amino acid esters and derivatives as antimicrobial agents” (Rohm and Haas Company, priority 1990, dated 1993).

Assay in all cases: MIC, broth two-fold serial dilution test
Assay [1] has as its system Escherichia coli (ECOL). The class given is cell-based, gram negative, ATCC 11229. To be noted: Escherichia coli (G-); M9G (minimal salts media with glucose); read-out: minimum inhibitory concentration (MIC), ECOL. As to the method: (§1) Biocidal evaluations (bactericidal, algicidal, and fungicidal) were carried out.
(§2) A minimum inhibitory concentration (MIC) value is obtained using a broth, two-fold serial dilution test performed as follows: A stock solution or dispersion of the test compound, typically at a concentration of 1%, is made in a 5:3:2 solvent solution of acetone, methanol, and water. A volume of the stock solution is dispensed into culture media to give an initial starting test concentration of 500 ppm compound.
(§3) When the test is ready to be done, each vessel in the dilution series, except the first vessel, contains an equal volume of compound free broth. The first vessel contains twice the volume of broth with the starting concentration of test compound. One half of the broth from the first vessel is transferred to the second vessel. After being mixed, one half the resulting volume is removed from the second vessel and transferred to the third vessel. The entire cycle is repeated sufficiently to give a series of concentrations amounting to 500, 250, 125, 63, 31, 16, 8, and 4 ppm (or 100, 50, 25, 12.5, 6.2, 3.1, 1.6, and 0.8), respectively.
(§4) Each vessel is then inoculated with a cell suspension of the appropriate test organism. Bacteria are grown in broth, fungi on agar slants for a time and at a temperature appropriate to the species being tested, and algae are a mixture of green algae and blue-green bacteria grown in a nutrient media. At the end of the growth period, in the case of bacteria, the broth is vortexed to disperse the cells.
(§5) The vessels are then incubated at the appropriate temperature. After the incubation, the vessels are examined for growth/no growth. The minimum inhibitory concentration (MIC) is defined as the lowest concentration of compound that results in complete inhibition of growth of the test organism.
Escherichia coli (ECOL), gram negative
(§6) These compounds were tested in M9G
(§7) (minimal salts media with glucose)

The test system of assay [2] is Aureobasidium pullulans (APUL). The class given is cell-based, ATCC 9348. The settings on record: Aureobasidium pullulans (F); M9G (minimal salts media with glucose); read-out: minimum inhibitory concentration (MIC), APUL. Here is the method:
as §1, §2, §3, §4
(§8) In the case of fungi, the spores are harvested by pipetting water onto the slant and dislodging the spores with a sterile loop. The cell/spore suspension is standardized by controlling incubation time, temperature, and the volume of the diluent. The suspension is then used to inoculate the vessels containing the broth compound.
as §5
Aureobasidium pullulans (APUL)
as §6, §7
6. Aureobasidium pullulans

Assay [3] relates to Staphylococcus aureus (SAUR). The class given is cell-based, gram positive, ATCC 6538. The settings on record: Staphylococcus aureus (G+); M9G (minimal salts media with glucose); read-out: minimum inhibitory concentration (MIC), SAUR. Here is the method: as §1, §2, §3, §4, §5
Staphylococcus aureus (SAUR), gram positive
as §6, §7
2. Staphylococcus aureus (+)

In assay [4] the test system is Aspergillus niger (ANIG). Type of assay: cell-based, ATCC 6275. To be noted: Aspergillus niger (F); M9G (minimal salts media with glucose); read-out: minimum inhibitory concentration (MIC), ANIG. As to the method:
as §1, §2, §3, §4, §8, §5, §6, §7

The subject of assay [5] is Pseudomonas fluorescens (PSFL). Type of assay: cell-based, gram negative, ATCC 948. The settings on record: Pseudomonas fluorescens (G-); M9G (minimal salts media with glucose); read-out: minimum inhibitory concentration (MIC), PSFL. As to the method: as §1, §2, §3, §4, §5
Pseudomonas fluorescens (PSFL), gram negative
as §6, §7
4. Pseudomonas fluorescens (-)

The subject of assay [6] is Pseudomonas aerugenosa (PSAE). Type of assay: cell-based, gram negative, ATCC 15442. The settings on record: Pseudomonas aeruginosa (G-); M9G (minimal salts media with glucose); read-out: minimum inhibitory concentration (MIC), PSAE. As to the method: as §1, §2, §3, §4, §5
Pseudomonas aerugenosa (PSAE), gram negative
as §6, §7
1. Pseudomonas aeruginosa (-)

Assay [7] has as its system ALGAE. The class given is cell-based, mixture of green algae and blue-green bacteria. The settings on record: green algae and blue-green bacteria; culture in Allen's medium; read-out: minimum inhibitory concentration (MIC), ALGAE. As to the method:
as §1, §2, §3
Each vessel is then inoculated with a cell suspension of the appropriate test organism. […]

In brackets after ≈: the same amount, converted by molar mass.

Consider `COC(=O)CNC(=O)OCC#CI` [Compound 2, N-iodopropargyloxycarbonyl glycine methyl ester], for which the MIC in assay [1] was 32 µg/mL; in assay [2], below 4 µg/mL; in assay [3], 16 µg/mL; in assay [4], below 4 µg/mL; in assay [5], 16 µg/mL; in assay [6], 32 µg/mL.
With `C[C@H](NC(=O)OCC#CI)C(=O)O` [Compound 5, N-iodopropargyloxycarbonyl alanine], the MIC in assay [1] is 125 µg/mL; in assay [2] it was 32 µg/mL; in assay [3], 250 µg/mL; in assay [4] it was 125 µg/mL; in assay [5], 125 µg/mL; in assay [6] it was above 500 µg/mL.
As for `O=C(CNC(=O)OCC#CI)OCC#CI` [Compound 4, N-iodopropargyloxycarbonyl glycine iodopropargyl ester], the MIC in assay [7] is 12.5 µg/mL (≈ 28 µM); in assay [1] it was 125 µg/mL; in assay [2], below 0.12 µg/mL; in assay [3], 32 µg/mL; in assay [4], below 0.12 µg/mL; in assay [5], 32 µg/mL. For the same compound, the MIC in assay [6] was found to be 125 µg/mL.
Regarding `COC(=O)[C@H](C)NC(=O)OCC#CI` [Compound 6, N-iodopropargyloxycarbonyl alanine methyl ester], the MIC was below 4 µg/mL in assay [1]; below 4 µg/mL in assay [2]; 16 µg/mL in assay [3]; below 4 µg/mL in assay [4]; below 4 µg/mL in assay [5]; 32 µg/mL in assay [6].
For `COC(=O)[C@H](Cc1ccccc1)NC(=O)OCC#CI` [Compound 9, N-iodopropargyloxycarbonyl phenylalanine methyl ester], the MIC is above 500 µg/mL in assay [1]; below 4 µg/mL in assay [2]; 125 µg/mL in assay [3]; below 4 µg/mL in assay [4]; 125 µg/mL in assay [5]; above 500 µg/mL in assay [6].
Take `CCCCCCCCOC(=O)[C@H](C)NC(=O)OCC#CI` [Compound 7, N-iodopropargyloxycarbonyl alanine n-octyl ester]: the MIC in assay [1] is below 4 µg/mL; in assay [2] it was below 63 µg/mL; in assay [3], 63 µg/mL; in assay [4], below 4 µg/mL; in assay [5], 8 µg/mL; in assay [6], 125 µg/mL.
Regarding `O=C(N[C@@H](Cc1ccccc1)C(=O)O)OCC#CI` [Compound 8, N-iodopropargyloxycarbonyl phenylalanine], the MIC in assay [1] is below 4 µg/mL; in assay [2] it was 250 µg/mL; in assay [3], 125 µg/mL; in assay [4] it was 250 µg/mL; in assay [5], 63 µg/mL; in assay [6] it was 250 µg/mL.
Consider `CCCCCCCCOC(=O)CNC(=O)OCC#CI` [Compound 3, N-Iodopropargyloxycarbonyl glycine n-octyl ester], for which the MIC in assay [1] is above 500 µg/mL; in assay [2], below 4 µg/mL; in assay [3], 8 µg/mL; in assay [4], below 4 µg/mL; in assay [5], 8 µg/mL; in assay [6], above 500 µg/mL.
Regarding `O=C(O)CNC(=O)OCC#CI` [Compound 1, N-iodopropargyloxycarbonyl glycine], the MIC was 250 µg/mL in assay [1]; above 500 µg/mL in assay [2]; 250 µg/mL in assay [3]; above 500 µg/mL in assay [4]; 250 µg/mL in assay [5]; above 500 µg/mL in assay [6].
In the case of `CCCCCCCCOC(=O)[C@H](Cc1ccccc1)NC(=O)OCC#CI` [Compound 10, N-iodopropargyloxycarbonyl phenylalanine n-octyl ester], the MIC in assay [1] was below 4 µg/mL; in assay [2] it was 125 µg/mL; in assay [3], 32 µg/mL; in assay [4], 125 µg/mL; in assay [5], 32 µg/mL; in assay [6] it was 63 µg/mL.
